From patent publication US10344019B2 (priority 2010, dated 2019)
Where two headings read alike, the source gives them in different places.

Assays:
Assay in all cases: microbe, parasite or virus in culture
Format in all cases: cell-based
[1] = system: HCV 1a RLuc cells (dicistronic genotype 1a H77 replicon, RLuc reporter); settings: Hepatitis C virus, read-out: 1a
Procedure, shortened: (§1)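 Replicons used: genotype 1b Con1, 1a H77, 2a JFH-1, and a 2a JFH-1 chimera with J6-strain NS5A (M31 present), all dicistronic.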

[2] = system: HCV 2a JFH-1 Rluc cells (dicistronic genotype 2a JFH-1 replicon, RLuc reporter); settings: Hepatitis C virus, genotype 2a JFH-1 replicon, read-out: 2a JFH
Procedure, shortened: as §1

[3] = system: HCV 4a Rluc cells (NS5A chimeric genotype 1b Con1 replicon with genotype 4a NS5A gene); settings: Hepatitis C virus, read-out: 4a
Procedure, shortened: (§2)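 Replicon cells stably carrying the listed RLuc-encoding dicistronic replicons were seeded and treated with DMSO serial dilutions of compound (10 mM stocks) diluted into culture medium. After 72 h, cells were lysed and Renilla luciferase activity measured. EC50 was derived by non-linear regression.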

[4] = system: HCV 1b RLuc cells (dicistronic genotype 1b Con1 replicon, RLuc reporter); settings: Hepatitis C virus, read-out: 1b (nM)
Procedure, shortened: as §1

[5] = system: HCV 3a RLuc cells (NS5A chimeric genotype 1b Con1 replicon with consensus genotype 3a NS5A gene); settings: Hepatitis C virus
Procedure, shortened: as §2

[6] = read-out: 3a, genotype 3a replicon
[7] = genotype 1a H77 replicon, RLuc reporter
[8] = read-out: 3a, genotype 3a NS5A chimeric 1b Con1 replicon
[9] = 72 h, Table 2, genotype 1a H77 replicon, 72 hours
[10] = read-out: 3a, Table 2, genotype 3a NS5A chimeric replicon

Row | Compound | EC50 [3] | EC50 [4] | EC50 [1, 7] | EC50 ([2]; RLuc reporter) | EC50 [5, 8] | EC50 ([4]; 72 h) | further results
1 | COC(=O)N[C@H](C(=O)N1CCC[C@H]1c1nc(Cl)c(-c2ccc(-c3ccc4cc(-c5[nH]c([C@@H]6CCCN6C(=O)[C@@H](NC(=O)OC)C(C)C)nc5Cl)ccc4c3)cc2)[nH]1)C(C)C [Example 380] | 0.001 to 0.99 nM | 0.006 nM | – | – | – | – | EC50 ([1]; genotype 1a replicon): 0.001 to 0.999 nM; EC50 [2]: 0.001 to 0.999 nM; EC50 [5, 6]: > 5 nM
2 | COC(=O)N[C@H](C(=O)N1CCC[C@H]1c1nc(-c2ccc3cc(-c4ccc5c(ccc6nc([C@@H]7CCCN7C(=O)[C@H](NC(=O)OC)c7ccccc7)[nH]c65)c4)sc3c2)c[nH]1)[C@H](C)OC [Example 257] | 0.001 to 0.99 nM | 0.013 nM | 0.001 to 0.999 nM | 0.001 to 0.999 nM | 0.001 to 0.99 nM | – | –
3 | COC(=O)N[C@H](C(=O)N1CC2(CC2)C[C@H]1c1ncc(-c2ccc3c(c2)C(F)(F)c2cc(-c4ccc5nc([C@@H]6[C@H]7CC[C@H](C7)N6C(=O)[C@H](c6ccccc6)N6CCOCC6)[nH]c5c4)ccc2-3)[nH]1)C(C)C [Example 97] | 0.001 to 0.99 nM | – | – | – | – | 0.009 nM | EC50 [1, 9]: 1 to 44 nM; EC50 ([2]; 72 h, Table 2, 72 hours): 1 to 44 nM; EC50 [5, 10]: > 5 nM
4 | COC(=O)N[C@H](C(=O)N1CCC[C@H]1c1ncc(-c2ccc3c4ccc(-c5cnc([C@@H]6CCCN6C(=O)[C@@H](NC(=O)OC)[C@@H](C)OC)[nH]5)cc4c4ccccc4c3c2)[nH]1)C(C)C [Example 311] | 0.001 to 0.99 nM | 0.025 nM | – | – | – | – | EC50 ([1]; genotype 1a replicon): 0.001 to 0.999 nM; EC50 [2]: 0.001 to 0.999 nM; EC50 [5, 6]: 0.001 to 0.99 nM
5 | COC(=O)N[C@H](C(=O)N1CCC[C@H]1c1nc2ccc3cc(-c4ccc5c(ccc6nc([C@@H]7[C@H]8CC[C@H](C8)N7C(=O)[C@@H](NC(=O)OC)[C@@H](C)OC)[nH]c65)c4)ccc3c2[nH]1)C(C)C [Example 64] | 0.001 to 0.99 nM | – | – | – | – | 0.018 nM | EC50 [1, 9]: 0.001 to 0.999 nM; EC50 ([2]; 72 h, Table 2, 72 hours): 0.001 to 0.999 nM; EC50 [5, 10]: 0.001 to 0.99 nM
6 | COC(=O)N[C@H](C(=O)N1CCC[C@H]1c1ncc(-c2ccc3c(c2)CCc2cc(-c4cnc([C@@H]5[C@H]6CC[C@H](C6)N5C(=O)[C@@H](c5ccccc5)N5CCOCC5)[nH]4)ccc2-3)[nH]1)C(C)C [Example 295] | 0.001 to 0.99 nM | 0.05 nM | – | – | – | – | EC50 ([1]; genotype 1a replicon): 1 to 44 nM; EC50 [2]: 0.001 to 0.999 nM; EC50 [5, 6]: 0.001 to 0.99 nM
7 | COC(=O)N[C@H](C(=O)N1CC(F)(F)C[C@H]1c1ncc(-c2ccc(-c3ccc4cc(-c5cnc([C@@H]6CCCN6C(=O)[C@H](NC(=O)OC)c6ccccc6)[nH]5)ccc4c3)cc2)[nH]1)[C@@H](C)OC [Example 263] | 0.001 to 0.99 nM | 0.006 nM | 0.001 to 0.999 nM | 0.001 to 0.999 nM | 0.001 to 0.99 nM | – | –
8 | CCN(CC)C(C(=O)N1CCC[C@H]1c1ncc(-c2ccc(-c3ccc4c(c3)C(F)(F)c3cc(-c5cnc([C@@H]6CCCN6C(=O)C(NC(=O)OC)C(C)C)[nH]5)ccc3-4)cc2)[nH]1)c1ccccc1 (stereo partly drawn) [Example 200] | 0.001 to 0.99 nM | 0.009 nM | 1 to 44 nM | 1 to 44 nM | 1 to 4.99 nM | – | –
9 | COC(=O)N[C@H](C(=O)N1CCC[C@H]1c1nc2c([nH]1)-c1ccc(-c3ccc4cc(-c5cnc([C@@H]6CCCN6C(=O)[C@H](NC(=O)C(C)(C)O)c6ccccc6)[nH]5)ccc4c3)cc1CC2)C(C)C [Example 244] | 0.001 to 0.99 nM | 0.014 nM | 0.001 to 0.999 nM | 0.001 to 0.999 nM | 0.001 to 0.99 nM | – | –
10 | COC(=O)NC(C(=O)N1CCC[C@@H]1c1ncc(-c2cc3c4c(c2)OCc2cc(-c5cnc([C@@H]6CCCN6C(=O)[C@@H](NC(=O)OC)C(C)C)[nH]5)cc(c2-4)OC3)[nH]1)C(C)C (stereo partly drawn) [Example 10] | 0.001 to 0.99 nM | – | – | – | – | 0.406 nM | EC50 ([1]; 72 h, Table 1, genotype 1a H77 replicon, 72 hours): 1 to 44 nM; EC50 ([2]; 72 h, Table 1, 72 hours): 0.001 to 0.999 nM; EC50 ([5]; read-out: 3a, Table 1, genotype 3a NS5A chimeric replicon): 0.001 to 0.99 nM
11 | COC(=O)N[C@H](C(=O)N1CC2(C[C@H]1c1nc3ccc(-c4ccc5c(c4)C(F)(F)c4cc(-c6cnc([C@@H]7CCCN7C(=O)[C@H](NC(=O)OC)c7ccccc7)[nH]6)ccc4-5)cc3[nH]1)OCCO2)C1CCOCC1 [Example 59] | 0.001 to 0.99 nM | – | – | – | – | 0.016 nM | EC50 [1, 9]: 0.001 to 0.999 nM; EC50 ([2]; 72 h, Table 2, 72 hours): 0.001 to 0.999 nM; EC50 [5, 10]: 0.001 to 0.99 nM
12 | COC(=O)N[C@H](C(=O)N1CCC[C@H]1c1ncc(-c2ccc3cc(-c4ccc(-c5cnc([C@@H]6CCCN6C(=O)[C@H](NC(=O)CN(C)C)c6ccccc6)[nH]5)cc4)ccc3c2)[nH]1)C(C)C [Example 237] | 0.001 to 0.99 nM | 0.023 nM | 0.001 to 0.999 nM | 0.001 to 0.999 nM | 0.001 to 0.99 nM | – | –
